Laboratory results from ChEMBL document CHEMBL2321704, “Cis-amide isosteric replacement in thienobenzoxepin inhibitors of PI3-kinase” (Bioorg Med Chem Lett, 2013).
In brackets after ≈: the same amount, converted by molar mass.

Legend:
[1] = molecular target: T1, Phosphatidylinositol 4,5-bisphosphate 3-kinase catalytic subunit alpha isoform (Homo sapiens, UniProt P42336); assay: Inhibition of recombinant PI3Kalpha (unknown origin)-mediated 3,4,5-inositoltriphosphate formation after 30 mins by TAMRA-PIP3-based competitive fluorescence polarization assay
[2] = molecular target: T1, Phosphatidylinositol 4,5-bisphosphate 3-kinase catalytic subunit alpha isoform
Description: Inhibition of PI3Kalpha-mediated AKT Ser 473 phosphorylation in human PC3 cells

[3] = Kinetic solubility of the compound by dry down method; type: physicochemical; conditions: read-out: Kinetic_solubility
[4] = Apparent permeability from apical to basal side of MDCK cells; type: ADME, cell-based, Canis lupus familiaris; conditions: dog
Mus musculus [5] = assay: Unbound AUC in nude mouse at 25 mg/kg; type: ADME, organism-based; set-up: dose 25 mg/kg; conditions: in vivo
PC-3 = assay: Antiproliferative activity against human PC3 cells after 4 days by CellTiter-Glo assay; type: functional, cell-based; conditions: PC-3, 96 h
[6] = Plasma clearance in Sprague-Dawley rat at 1 mg/kg, iv; type: ADME, organism-based; set-up: dose 1 mg/kg, route intravenous
[7] = Thermodynamic solubility of the compound at pH 7.4; type: physicochemical; conditions: buffer, read-out: Therm_solubility
[8] = Clearance in rat liver microsomes; type: ADME, Microsome
Mus musculus [9] = assay: Unbound AUC in nude mouse at 50 mg/kg; type: ADME, organism-based; set-up: dose 50 mg/kg; conditions: in vivo
Mus musculus [10] = assay: Unbound AUC in nude mouse at 100 mg/kg; type: ADME, organism-based; set-up: dose 100 mg/kg; conditions: in vivo
[11] = Clearance in human liver microsomes; type: ADME, Microsome
MCF7 = assay: Antiproliferative activity against human MCF7 cells expressing neo-HER2 after 3 days by CellTiter-Glo assay; type: functional, cell-based; conditions: MCF7, 72 h

T1 sequence (P42336 whole entry, canonical isoform): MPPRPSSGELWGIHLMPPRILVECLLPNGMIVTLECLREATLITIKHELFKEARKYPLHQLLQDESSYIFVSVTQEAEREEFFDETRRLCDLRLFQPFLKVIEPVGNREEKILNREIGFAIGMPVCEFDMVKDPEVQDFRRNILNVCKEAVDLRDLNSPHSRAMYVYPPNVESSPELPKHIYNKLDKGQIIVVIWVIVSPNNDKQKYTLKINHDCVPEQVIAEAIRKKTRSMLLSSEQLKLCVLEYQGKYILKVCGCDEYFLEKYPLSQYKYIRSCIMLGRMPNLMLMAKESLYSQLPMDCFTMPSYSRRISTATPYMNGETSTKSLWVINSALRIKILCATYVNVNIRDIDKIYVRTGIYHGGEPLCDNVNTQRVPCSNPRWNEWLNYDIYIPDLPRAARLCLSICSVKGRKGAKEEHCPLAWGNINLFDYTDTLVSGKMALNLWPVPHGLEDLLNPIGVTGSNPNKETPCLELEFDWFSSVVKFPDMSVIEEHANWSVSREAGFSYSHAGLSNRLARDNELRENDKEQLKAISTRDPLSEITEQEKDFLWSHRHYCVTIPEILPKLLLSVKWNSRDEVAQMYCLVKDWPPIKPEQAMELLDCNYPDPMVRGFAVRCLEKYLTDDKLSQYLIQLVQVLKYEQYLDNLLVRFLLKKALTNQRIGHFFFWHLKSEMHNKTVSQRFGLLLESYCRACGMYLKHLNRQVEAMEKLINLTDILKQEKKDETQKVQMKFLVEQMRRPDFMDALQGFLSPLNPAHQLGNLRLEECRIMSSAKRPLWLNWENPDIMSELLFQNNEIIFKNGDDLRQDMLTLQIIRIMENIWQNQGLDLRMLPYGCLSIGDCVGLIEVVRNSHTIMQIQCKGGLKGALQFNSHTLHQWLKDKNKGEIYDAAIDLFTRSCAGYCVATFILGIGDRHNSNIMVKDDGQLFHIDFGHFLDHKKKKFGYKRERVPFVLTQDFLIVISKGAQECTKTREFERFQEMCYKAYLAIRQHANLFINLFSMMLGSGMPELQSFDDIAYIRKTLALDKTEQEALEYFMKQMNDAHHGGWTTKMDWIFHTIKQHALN

SMILES	IC50 [1] [nM]	IC50 [2] [nM]	solubility kinetic [3] [µM]	CLhep predicted [8] [mL/min/kg]	CLhep predicted [11] [mL/min/kg]	other results
NC(=O)c1ccc2c(c1)OCCc1cc(-c3n[nH]c(=O)n3-c3ccccc3Cl)sc1-2	< 0.5	20	15 (≈ 6.58 µg/mL)			
NC(=O)c1ccc2c(c1)OCCc1cc(-c3ncnn3-c3ccc(F)cc3F)sc1-2	< 0.5	17	> 200	24	7	Papp A→B [4]: 13 ×10⁻⁶ cm/s; fAUC (Mus musculus [5]): 0.26 µM·h; IC50 (PC-3): 180 nM; clearance [6]: 38 mL/min/kg; solubility thermodynamic [7]: < 1 µg/mL; fAUC (Mus musculus [9]): 0.53 µM·h; fAUC (Mus musculus [10]): 0.54 µM·h; IC50 (MCF7): 23 nM
CC(C)Cn1ncnc1-c1cc2c(s1)-c1ccc(C(N)=O)cc1OCC2	4	279	> 200	49	19	clearance [6]: 112 mL/min/kg
NC(=O)c1ccc2c(c1)OCCc1cc(-c3ncnn3C3CCC3)sc1-2	8	563	37 (≈ 13.6 µg/mL)	44	19	clearance [6]: 61 mL/min/kg
CC(C)(O)Cn1ncnc1-c1cc2c(s1)-c1ccc(C(N)=O)cc1OCC2	4	481	> 200	15	11	clearance [6]: 57 mL/min/kg
CC(=O)Nc1nc(-c2cc3c(s2)-c2ncccc2OCC3)c(-c2ccccc2Cl)[nH]1	< 1.4	36	41 (≈ 17.9 µg/mL)			
CN(C)CCn1ncnc1-c1cc2c(s1)-c1ccc(C(N)=O)cc1OCC2	142		128 (≈ 49.1 µg/mL)	38	14	
NC(=O)c1ccc2c(c1)OCCc1cc(-c3nnnn3-c3ccccc3Cl)sc1-2	< 0.5	42	> 200			
CN(C(=O)c1cc2c(s1)-c1ccccc1OCC2)C1CCCCC1	885					
CN(C(=O)c1cc2c(s1)-c1ncccc1OCC2)c1ccccc1Cl	7	> 1000	41 (≈ 15.2 µg/mL)			
CN(C(=O)c1cc2c(s1)-c1ccc(C(N)=O)cc1OCC2)c1ccccc1Cl	1.5	100		43	18	Papp A→B [4]: 2.1 ×10⁻⁶ cm/s; IC50 (PC-3): > 3500 nM; IC50 (MCF7): > 4100 nM
Clc1ccccc1-c1ocnc1-c1cc2c(s1)-c1ncccc1OCC2	12	250	41 (≈ 15.6 µg/mL)			
NC(=O)c1ccc2c(c1)OCCc1cc(-c3ncnn3CC(F)(F)F)sc1-2	7	487	> 200	12	7	clearance [6]: 11 mL/min/kg
NC(=O)c1ccc2c(c1)OCCc1cc(-c3nncn3-c3ccccc3Cl)sc1-2	< 0.5	60	9 (≈ 3.81 µg/mL)			
CN(C(=O)c1cc2c(s1)-c1ccccc1OCC2)c1ccc(F)cc1F	52	> 1000				
CC(C)n1ncnc1-c1cc2c(s1)-c1ccc(C(N)=O)cc1OCC2			> 200	29	10	Papp A→B [4]: 20 ×10⁻⁶ cm/s; fAUC (Mus musculus [5]): 5.7 µM·h; clearance [6]: 13 mL/min/kg; solubility thermodynamic [7]: 53 µg/mL (≈ 150 µM); fAUC (Mus musculus [9]): 13.6 µM·h; fAUC (Mus musculus [10]): 17.8 µM·h
NC(=O)c1ccc2c(c1)OCCc1cc(-c3n[nH]cc3-c3ccccc3Cl)sc1-2	1	28	12 (≈ 5.06 µg/mL)			
NC(=O)c1ccc2c(c1)OCCc1cc(-c3ncnn3CCO)sc1-2	15	> 1000	> 200	25	10	
Nc1nc(-c2cc3c(s2)-c2ccccc2OCC3)c(-c2ccccc2Cl)s1	< 0.5	23	4 (≈ 1.64 µg/mL)			
Clc1ccccc1-n1cnnc1-c1cc2c(s1)-c1ccccc1OCC2	7.3	74	15 (≈ 5.7 µg/mL)			
CC(C)N(C)C(=O)c1cc2c(s1)-c1ccccc1OCC2	> 2000					
O=c1[nH]nc(-c2cc3c(s2)-c2ccccc2OCC3)n1-c1ccccc1Cl	1.2	20				
Fc1ccc(-n2ncnc2-c2cc3c(s2)-c2ccccc2OCC3)c(F)c1	1.2	110	4.1 (≈ 1.56 µg/mL)			
